From the NIST ThermoML archive (doi:10.1021/je4001894)
Numbers after ± are expanded uncertainties.

Key:
[1] = 101.33 kPa, Liquid, Vibrating tube method
[2] = activity coefficient (dimensionless); of the first substance listed, at infinite dilution; xn = mol fraction of the nth substance listed; conditions: 101 kPa, Liquid, Chromatography, x1 = 0

CCCC[N+]1(C)CCCC1.O=S(=O)([N-]S(=O)(=O)C(F)(F)F)C(F)(F)F
mass density ([1]; 293.15 K): 1397.4 ± 0.6 kg/m3 | mass density ([1]; 303.15 K): 1389.2 ± 0.6 kg/m3 | mass density ([1]; 313.15 K): 1381.1 ± 0.6 kg/m3 | mass density ([1]; 323.15 K): 1372.7 ± 0.6 kg/m3 | mass density ([1]; 333.15 K): 1364.1 ± 0.6 kg/m3

CCC[N+]1(C)CCCC1.O=S(=O)([N-]S(=O)(=O)C(F)(F)F)C(F)(F)F
mass density ([1]; 293.15 K): 1430.1 ± 0.6 kg/m3 | mass density ([1]; 303.15 K): 1421.8 ± 0.6 kg/m3 | mass density ([1]; 313.15 K): 1412.8 ± 0.6 kg/m3 | mass density ([1]; 323.15 K): 1403.8 ± 0.6 kg/m3 | mass density ([1]; 333.15 K): 1394.4 ± 0.6 kg/m3

CCCO [propan-1-ol] + CCC[N+]1(C)CCCC1.O=S(=O)([N-]S(=O)(=O)C(F)(F)F)C(F)(F)F
activity coefficient ([2]; 323.15 K): 2.17 ± 0.15 | activity coefficient ([2]; 333.15 K): 1.95 ± 0.13 | activity coefficient ([2]; 343.15 K): 1.79 ± 0.12

CC(C)O [propan-2-ol] + CCCC[N+]1(C)CCCC1.O=S(=O)([N-]S(=O)(=O)C(F)(F)F)C(F)(F)F
activity coefficient ([2]; 323.15 K): 1.9 ± 0.13 | activity coefficient ([2]; 333.15 K): 1.72 ± 0.12 | activity coefficient ([2]; 343.15 K): 1.57 ± 0.1

CC(C)O [propan-2-ol] + CCC[N+]1(C)CCCC1.O=S(=O)([N-]S(=O)(=O)C(F)(F)F)C(F)(F)F
activity coefficient ([2]; 323.15 K): 1.92 ± 0.13 | activity coefficient ([2]; 333.15 K): 1.79 ± 0.12 | activity coefficient ([2]; 343.15 K): 1.62 ± 0.11

c1ccncc1 [pyridine] + CCCC[N+]1(C)CCCC1.O=S(=O)([N-]S(=O)(=O)C(F)(F)F)C(F)(F)F
activity coefficient ([2]; 323.15 K): 0.59 ± 0.04 | activity coefficient ([2]; 333.15 K): 0.59 ± 0.04 | activity coefficient ([2]; 343.15 K): 0.59 ± 0.04

c1ccncc1 [pyridine] + CCC[N+]1(C)CCCC1.O=S(=O)([N-]S(=O)(=O)C(F)(F)F)C(F)(F)F
activity coefficient ([2]; 323.15 K): 0.63 ± 0.04 | activity coefficient ([2]; 333.15 K): 0.63 ± 0.04 | activity coefficient ([2]; 343.15 K): 0.64 ± 0.04

ClC(Cl)(Cl)Cl [tetrachloromethane] + CCCC[N+]1(C)CCCC1.O=S(=O)([N-]S(=O)(=O)C(F)(F)F)C(F)(F)F
activity coefficient ([2]; 323.15 K): 2.44 ± 0.17 | activity coefficient ([2]; 333.15 K): 2.45 ± 0.17 | activity coefficient ([2]; 343.15 K): 2.47 ± 0.17

ClC(Cl)(Cl)Cl [tetrachloromethane] + CCC[N+]1(C)CCCC1.O=S(=O)([N-]S(=O)(=O)C(F)(F)F)C(F)(F)F
activity coefficient ([2]; 323.15 K): 2.55 ± 0.17 | activity coefficient ([2]; 333.15 K): 2.62 ± 0.18 | activity coefficient ([2]; 343.15 K): 2.64 ± 0.18

c1ccsc1 [thiophene] + CCCC[N+]1(C)CCCC1.O=S(=O)([N-]S(=O)(=O)C(F)(F)F)C(F)(F)F
activity coefficient ([2]; 323.15 K): 0.82 ± 0.05 | activity coefficient ([2]; 333.15 K): 0.83 ± 0.05 | activity coefficient ([2]; 343.15 K): 0.84 ± 0.05

c1ccsc1 [thiophene] + CCC[N+]1(C)CCCC1.O=S(=O)([N-]S(=O)(=O)C(F)(F)F)C(F)(F)F
activity coefficient ([2]; 323.15 K): 0.86 ± 0.06 | activity coefficient ([2]; 333.15 K): 0.88 ± 0.06 | activity coefficient ([2]; 343.15 K): 0.89 ± 0.06

Cc1ccccc1 [toluene] + CCCC[N+]1(C)CCCC1.O=S(=O)([N-]S(=O)(=O)C(F)(F)F)C(F)(F)F
activity coefficient ([2]; 323.15 K): 1.25 ± 0.08 | activity coefficient ([2]; 333.15 K): 1.27 ± 0.08 | activity coefficient ([2]; 343.15 K): 1.29 ± 0.08

Cc1ccccc1 [toluene] + CCC[N+]1(C)CCCC1.O=S(=O)([N-]S(=O)(=O)C(F)(F)F)C(F)(F)F
activity coefficient ([2]; 323.15 K): 1.37 ± 0.09 | activity coefficient ([2]; 333.15 K): 1.38 ± 0.09 | activity coefficient ([2]; 343.15 K): 1.45 ± 0.1

ClC(Cl)Cl [trichloromethane] + CCCC[N+]1(C)CCCC1.O=S(=O)([N-]S(=O)(=O)C(F)(F)F)C(F)(F)F
activity coefficient ([2]; 323.15 K): 0.83 ± 0.05 | activity coefficient ([2]; 333.15 K): 0.86 ± 0.06 | activity coefficient ([2]; 343.15 K): 0.88 ± 0.06

ClC(Cl)Cl [trichloromethane] + CCC[N+]1(C)CCCC1.O=S(=O)([N-]S(=O)(=O)C(F)(F)F)C(F)(F)F
activity coefficient ([2]; 323.15 K): 0.85 ± 0.05 | activity coefficient ([2]; 333.15 K): 0.91 ± 0.06 | activity coefficient ([2]; 343.15 K): 0.96 ± 0.06

CCN(CC)CC [triethylamine] + CCCC[N+]1(C)CCCC1.O=S(=O)([N-]S(=O)(=O)C(F)(F)F)C(F)(F)F
activity coefficient ([2]; 323.15 K): 7.07 ± 0.48 | activity coefficient ([2]; 333.15 K): 7.07 ± 0.48 | activity coefficient ([2]; 343.15 K): 7.09 ± 0.48

CCN(CC)CC [triethylamine] + CCC[N+]1(C)CCCC1.O=S(=O)([N-]S(=O)(=O)C(F)(F)F)C(F)(F)F
activity coefficient ([2]; 323.15 K): 8.98 ± 0.61 | activity coefficient ([2]; 333.15 K): 8.1 ± 0.55 | activity coefficient ([2]; 343.15 K): 7.19 ± 0.49

CCCCCCCCCCC [undecane] + CCCC[N+]1(C)CCCC1.O=S(=O)([N-]S(=O)(=O)C(F)(F)F)C(F)(F)F
activity coefficient ([2]; 323.15 K): 76.9 ± 5.3 | activity coefficient ([2]; 333.15 K): 68.2 ± 4.7 | activity coefficient ([2]; 343.15 K): 61.1 ± 4.2

CCCCCCCCCCC [undecane] + CCC[N+]1(C)CCCC1.O=S(=O)([N-]S(=O)(=O)C(F)(F)F)C(F)(F)F
activity coefficient ([2]; 323.15 K): 108 ± 7.4 | activity coefficient ([2]; 333.15 K): 92.8 ± 6.4 | activity coefficient ([2]; 343.15 K): 85.1 ± 5.8
